The first assay deals with T1, GSPT1 (Homo sapiens, UniProt P15170+Q96SW2).
T1 construct: host or cells: HEK293 LgBiT cell line
T1 sequence (P15170 whole entry): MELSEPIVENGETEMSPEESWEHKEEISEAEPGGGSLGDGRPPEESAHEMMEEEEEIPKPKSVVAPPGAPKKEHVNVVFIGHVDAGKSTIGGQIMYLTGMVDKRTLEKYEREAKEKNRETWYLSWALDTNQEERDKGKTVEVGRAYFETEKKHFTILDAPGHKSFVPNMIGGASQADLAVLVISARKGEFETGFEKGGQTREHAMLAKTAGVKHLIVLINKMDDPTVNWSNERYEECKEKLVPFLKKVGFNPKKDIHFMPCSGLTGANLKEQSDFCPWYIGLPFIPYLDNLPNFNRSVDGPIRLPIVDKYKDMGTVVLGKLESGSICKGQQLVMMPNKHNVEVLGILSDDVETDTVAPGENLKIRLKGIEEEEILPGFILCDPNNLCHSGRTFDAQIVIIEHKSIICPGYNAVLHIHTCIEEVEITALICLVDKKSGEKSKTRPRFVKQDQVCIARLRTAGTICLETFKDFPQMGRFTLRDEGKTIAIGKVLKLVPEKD
T1 sequence (Q96SW2 whole entry): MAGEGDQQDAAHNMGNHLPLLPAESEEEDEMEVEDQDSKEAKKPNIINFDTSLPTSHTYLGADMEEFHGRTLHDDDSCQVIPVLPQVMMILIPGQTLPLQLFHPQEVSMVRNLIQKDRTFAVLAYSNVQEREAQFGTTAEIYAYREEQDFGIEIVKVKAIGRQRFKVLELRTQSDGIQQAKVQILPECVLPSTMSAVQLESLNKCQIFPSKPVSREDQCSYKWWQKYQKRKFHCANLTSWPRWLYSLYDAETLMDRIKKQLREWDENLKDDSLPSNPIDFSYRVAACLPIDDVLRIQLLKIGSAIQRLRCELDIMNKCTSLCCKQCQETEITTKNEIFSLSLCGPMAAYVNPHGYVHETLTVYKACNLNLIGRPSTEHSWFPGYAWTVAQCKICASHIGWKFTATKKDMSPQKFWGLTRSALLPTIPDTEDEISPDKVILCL
T1 sequence (Q16531 whole entry partner): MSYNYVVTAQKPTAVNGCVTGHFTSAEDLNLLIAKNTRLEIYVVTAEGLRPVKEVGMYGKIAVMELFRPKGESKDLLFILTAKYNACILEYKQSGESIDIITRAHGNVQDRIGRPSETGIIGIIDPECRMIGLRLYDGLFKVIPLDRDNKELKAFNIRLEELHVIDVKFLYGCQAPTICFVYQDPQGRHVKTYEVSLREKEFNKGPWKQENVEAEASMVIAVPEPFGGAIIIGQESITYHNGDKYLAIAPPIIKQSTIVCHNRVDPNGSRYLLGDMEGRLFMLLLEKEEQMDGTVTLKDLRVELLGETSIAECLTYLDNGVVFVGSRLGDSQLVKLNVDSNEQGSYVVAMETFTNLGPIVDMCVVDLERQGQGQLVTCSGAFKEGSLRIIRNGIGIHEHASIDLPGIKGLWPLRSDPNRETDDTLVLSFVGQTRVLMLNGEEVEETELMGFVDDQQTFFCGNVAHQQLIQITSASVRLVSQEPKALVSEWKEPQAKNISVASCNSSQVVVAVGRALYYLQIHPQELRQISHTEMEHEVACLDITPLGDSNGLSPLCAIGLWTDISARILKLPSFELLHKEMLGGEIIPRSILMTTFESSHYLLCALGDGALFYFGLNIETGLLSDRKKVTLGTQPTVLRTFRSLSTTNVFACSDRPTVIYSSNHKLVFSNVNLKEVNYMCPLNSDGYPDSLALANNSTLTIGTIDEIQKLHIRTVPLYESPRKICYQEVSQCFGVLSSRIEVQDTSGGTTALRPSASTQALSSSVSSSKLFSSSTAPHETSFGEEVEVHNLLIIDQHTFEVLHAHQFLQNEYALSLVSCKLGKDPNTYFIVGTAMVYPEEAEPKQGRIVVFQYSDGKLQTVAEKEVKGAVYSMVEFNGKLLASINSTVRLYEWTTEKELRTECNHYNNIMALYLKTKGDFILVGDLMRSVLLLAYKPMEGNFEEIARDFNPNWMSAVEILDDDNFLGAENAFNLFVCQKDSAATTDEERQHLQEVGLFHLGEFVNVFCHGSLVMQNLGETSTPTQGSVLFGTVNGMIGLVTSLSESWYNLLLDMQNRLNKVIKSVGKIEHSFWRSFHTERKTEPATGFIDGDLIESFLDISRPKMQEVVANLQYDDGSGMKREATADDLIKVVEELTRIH
Briefly: GSPT1 HiBit degradation assay. The format is cell-based. To be noted: Table 3; HEK293 LgBiT cells expressing GSPT1_HiBiT, luminescence after 6 hours. The text has this: Promega developed a HEK293 cell line that constitutively expresses LgBiT protein and GSPT1_HiBiT fusion protein. When both proteins are present, the HiBiT portion of the fusion protein combines with LgBiT protein to form a functional luciferase enzyme. Endurazine, a cell permeable small molecule, is converted by cellular esterases into furimazine, which the luciferase enzyme uses as a substrate to generate luminescence. When GSPT1 is degraded, the HiBit is also degraded. This prevents formation of fully functional luciferase, leading to a loss in luminescence. GSPT1 degradation therefore correlates with a decrease in luminescence and can be measured continuously over time. The concentration of compound at which 50% GSPT1 degradation occurs (DC50) was calculated using this system.
• HEK293 LgBiT Cell line (Promega Custom) • Endurazine Substrate (Promega Cat. #N2570) • DMEM (Gibco Cat. #11995) • Penicillin/Streptomycin (Gibco Cat. #15140-122) • Heat Inactivated Fetal Bovine Serum (Gibco Cat. #A38400-01) • Hygromycin B (Gibco Cat. #10-687-010) • 384 Well TC Treated White Microplate (Perkin Elmer Cat. #6007680)
HEK293 LgBiT cells were cultured in DMEM Media supplemented with 10% FBS, 5% Pen/Strep, 200 μg/ml hygromycin and stored in an incubator set at 37° C. and 5% CO2. 18-24 hours prior to compound treatment, HEK293 LgBiT cells were seeded at 1000 cells/well in a 384-well microplate in 25 μl complete media. The plate was spun at 300 g for 30 seconds and stored in the incubator overnight. The next day, compounds were titrated in DMSO and added to media supplemented with endurazine substrate. A 25 ul aliquot of 2× compound/endurazine in media were then added to the 384-well microplate with seeded cells. (Endurazine was used at a final concentration of 0.5×). The plate was spun at 300 g for 30 seconds and stored in the incubator. After 6 hours the plate was read on a Perkin Elmer MultiMode Plate Reader Envision 2105 to measure luminescence signal.
`COc1cc(N2CCN(C(=O)COCCOCCOCCOCCOCCOCCOCCOCCOc3cc(Cl)cc(NC(=O)NCc4ccc5c(c4)CN(C4CCC(=O)NC4=O)C5=O)c3)CC2)ccc1Nc1ncc(Cl)c(Nc2ccccc2P(C)(C)=O)n1` (stereo not drawn) [Compound I-26] displayed a DC50 of over 10000 nM. Molecule `C=C(F)C(=O)N1CCN(c2nc(OC[C@@H]3CCCN3CCCOCCOCCOCCOCCCCCCCCc3cc(Cl)cc(NC(=O)NCc4ccc5c(c4)CN(C4CCC(=O)NC4=O)C5=O)c3)nc3c2CCN(c2cccc4cccc(Cl)c24)C3)C[C@@H]1CC#N` (stereo partly drawn) [Compound I-70] yielded a DC50 of under 250 nM. On to `C=CC(=O)Nc1cc(Nc2nccc(-c3cn(C)c4ccccc34)n2)c(OC)cc1N(C)CCN(C)CCOCCOCCOCCOCCOCCOCCOCCOCCOc1cc(Cl)cc(NC(=O)NCc2ccc3c(c2)CN(C2CCC(=O)NC2=O)C3=O)c1` (stereo not drawn) [Compound I-57], for which the DC50 was over 10000 nM. Still for that read-out and setting: as for `C=C(F)C(=O)N1CCN(c2nc(OC[C@H]3CCCN3CCCOCCOCCOCCOCCOCCOCCCCCCCCc3cc(Cl)cc(NC(=O)NCc4ccc5c(c4)CN(C4CCC(=O)NC4=O)C5=O)c3)nc3c2CCN(c2cccc4cccc(Cl)c24)C3)C[C@H]1CC#N` (stereo partly drawn) [Compound I-71], the figure is under 250 nM; as for `C=CC(=O)Nc1cc(Nc2nccc(-c3cn(C)c4ccccc34)n2)c(OC)cc1N(C)CCN(C)CCOCCOCCOCCOCCOCCOCCOCCOCCCCCCCCc1cc(Cl)cc(NC(=O)NCc2ccc3c(c2)CN(C2CCC(=O)NC2=O)C3=O)c1` (stereo not drawn) [Compound I-68], under 250 nM.

In the case of `C=CC(=O)Nc1cc(Nc2nccc(-c3cn(C)c4ccccc34)n2)c(OC)cc1N(C)CCN(C)CCOCCOCCOCCOCCCCCCCCc1cc(Cl)cc(NC(=O)NCc2ccc3c(c2)CN(C2CCC(=O)NC2=O)C3=O)c1` (stereo not drawn) [Compound I-61], the DC50 is under 250 nM. For the molecule `CC1(C)[C@H](NC(=O)c2ccc(OCCOCCOCCOCCOCCOCCOCCOCCOCCOCCOCCc3cc(Cl)cc(NC(=O)NCc4ccc5c(c4)CN(C4CCC(=O)NC4=O)C5=O)c3)cc2)C(C)(C)[C@H]1Oc1ccc(C#N)c(Cl)c1` (stereo partly drawn) [Compound I-29], the DC50 fell in the range of 250 to 5000 nM.

Staying with this assay, now noted: Table 3A; HEK293 LgBiT cells expressing GSPT1_HiBiT, luminescence after 6 hours.
As for `Cc1c(CC(=O)N(C)C)ccc(NC(=O)c2nn([C@@H]3CCCN(C(=O)/C=C/CN(C)CCOCCOCCOCCOCCOCCOCCc4cc(Cl)cc(NC(=O)NCc5ccc6c(c5)CN(C5CCC(=O)NC5=O)C6=O)c4)C3)c3ncnc(N)c23)c1C` (stereo partly drawn) [Compound I-23, 4-amino-1-[(3R)-1-[(E)-4-[2-[2-[2-[2-[2-[2-[2-[3-chloro-5-[[2-(2,6-dioxo-3-piperidyl)-1-oxo-isoindolin-5-yl]methylcarbamoylamino]phenyl]ethoxy]ethoxy]ethoxy]ethoxy]ethoxy]ethoxy]ethyl-methyl-amino]but-2-enoyl]-3-piperidyl]-N-[4-[2-(dimethylamino)-2-oxo-ethyl]-2,3-dimethyl-phenyl]pyrazolo [3,4-d]pyrimidine-3-carboxamide], the DC50 was over 10000 nM. Still for that read-out and setting: then `COc1cc(N2CCN(C(=O)COCCOCCOCCCCCc3cc(Cl)cc(NC(=O)NCc4ccc5c(c4)CN(C4CCC(=O)NC4=O)C5=O)c3)CC2)ccc1Nc1ncc(Cl)c(Nc2ccccc2P(C)(C)=O)n1` (stereo not drawn) [Compound I-121], with under 250 nM; and `C=CC(=O)N1CCN(c2nc(=O)n(-c3c(C)cc(OCCOCCOCCOCCOCCOCCCCCc4cc(Cl)cc(NC(=O)NCc5ccc6c(c5)CN(C5CCC(=O)NC5=O)C6=O)c4)nc3C(C)C)c3nc(-c4c(O)cccc4F)c(F)cc23)[C@@H](C)C1` (stereo partly drawn) [Compound I-149], with 250 to 5000 nM. With `Nc1ncnc2c1c(-c1ccc(Oc3ccccc3)cc1)nn2[C@@H]1CCCN(C(=O)/C=C/COCCOCCOCCOCCOCCOCCOCCOCCOCCOCCOCCCCCCCCc2cc(Cl)cc(NC(=O)NCc3ccc4c(c3)CN(C3CCC(=O)NC3=O)C4=O)c2)C1` (stereo partly drawn) [Compound I-94], the DC50 was in the range of 250 to 5000 nM.

With `Cc1ccc(NC(=O)NC(CCCCCOCCOCCOCCN(C)C/C=C/C(=O)N2CCN(c3nc(OC[C@@H]4CCCN4C)nc4c3CCN(c3cccc5cccc(Cl)c35)C4)C[C@@H]2CC#N)c2ccc3c(c2)CN(C2CCC(=O)NC2=O)C3=O)cc1Cl` (stereo partly drawn) [Compound I-115], the 50% degradation concentration (DC50) lay in the range of 5000 to 10000 nM. In turn, `Nc1ncnc2c1c(-c1ccc(Oc3ccccc3)cc1)nn2[C@@H]1CCCN(C(=O)/C=C/COCCOCCOCCOCCOCCOCCOCCOCCOCCCCCCCCc2cc(Cl)cc(NC(=O)NCc3ccc4c(c3)CN(C3CCC(=O)NC3=O)C4=O)c2)C1` (stereo partly drawn) [Compound I-93] displayed a half-maximal degradation concentration (DC50) of under 250 nM. Regarding `COc1cc(N2CCN(C(=O)COCCOCCOCCOCCOCCOCCOCCOCCOCCOCCOc3cc(Cl)cc(NC(=O)NCc4ccc5c(c4)CN(C4CCC(=O)NC4=O)C5=O)c3)CC2)ccc1Nc1ncc(Cl)c(Nc2ccccc2P(C)(C)=O)n1` (stereo not drawn) [Compound I-24, 1-[3-chloro-5-[2-[2-[2-[2-[2-[2-[2-[2-[2-[2-[2-[4-[4-[[5-chloro-4-(2-dimethylphosphorylanilino)pyrimidin-2-yl]amino]-3-methoxy-phenyl]piperazin-1-yl]-2-oxo-ethoxy]ethoxy]ethoxy]ethoxy]ethoxy]ethoxy]ethoxy]ethoxy]ethoxy]ethoxy]ethoxy]phenyl]-3-[[2-(2,6-dioxo-3-piperidyl)-1-oxo-isoindolin-5-yl]methyl]urea], the DC50 is over 10000 nM.

Take `Cc1c(NC(=O)c2ccc(C3CC3)cc2F)cc(F)cc1-c1ncnc(N)c1OCCN(C)C(=O)/C=C/CN(C)CCOCCOCCOCCCCCc1cc(Cl)cc(NC(=O)NCc2ccc3c(c2)CN(C2CCC(=O)NC2=O)C3=O)c1` (stereo not drawn) [Compound I-112]: the DC50 was in the range of 250 to 5000 nM.

On to `CN(CCOCCOCCOCCOCCOCCOCCOCCOCCOCCCCCc1cc(Cl)cc(NC(=O)NCc2ccc3c(c2)CN(C2CCC(=O)NC2=O)C3=O)c1)C(=O)CO[C@H]1CC[C@H]2[C@@H]3CC[C@H]4CC(=O)CC[C@]4(C)[C@H]3CC[C@]12C` (stereo partly drawn) [Compound I-135], for which the DC50 lay in the range of 250 to 5000 nM.

Molecule `CN(C/C=C/C(=O)N1CCN(c2nc(OC[C@@H]3CCCN3C)nc3c2CCN(c2cccc4cccc(Cl)c24)C3)C[C@@H]1CC#N)CCOCCOCCOCCOCCOCCOCCOCCOCCOCCCCCc1cc(Cl)cc(NC(=O)NCc2ccc3c(c2)CN(C2CCC(=O)N(C)C2=O)C3=O)c1` (stereo partly drawn) [Compound I-164] returned a DC50 of 5000 to 10000 nM.

Molecule `Cc1c(NC(=O)c2ccc(C3CC3)cc2F)cc(F)cc1-c1ncnc(N)c1OCCN(C)C(=O)/C=C/CN(C)CCOCCOCCOCCOCCOCCCCCc1cc(Cl)cc(NC(=O)NCc2ccc3c(c2)CN(C2CCC(=O)NC2=O)C3=O)c1` (stereo not drawn) [Compound I-105] returned a DC50 of under 250 nM. For `C=C(F)C(=O)N1CCN(c2nc(OC[C@@H]3C[C@@H](OCCOCCOCCOCCOCCCCCCCCc4cccc(NC(=O)NCc5ccc6c(c5)CN(C5CCC(=O)NC5=O)C6=O)c4)CN3C)nc3c2CCN(c2cccc4cccc(Cl)c24)C3)C[C@@H]1CC#N` (stereo partly drawn) [Compound I-99], the DC50 is 250 to 5000 nM.

In the case of `C=CC(=O)Nc1cc(Nc2nccc(-c3cn(C)c4ccccc34)n2)c(OC)cc1N(C)CCN(C)CCOCCOCCOCCOCCOCCOCCOCCCCCc1cc(Cl)cc(NC(=O)NCc2ccc3c(c2)CN(C2CCC(=O)NC2=O)C3=O)c1` (stereo not drawn) [Compound I-139], the DC50 lay within 250 to 5000 nM. Regarding `COc1cc(N2CCN(C(=O)COCCOCCOCCOCCOCCOCCOCCOCCOCCCCCc3cc(Cl)cc(NC(=O)NCc4ccc5c(c4)CN(C4CCC(=O)NC4=O)C5=O)c3)CC2)ccc1Nc1ncc(Cl)c(Nc2ccccc2P(C)(C)=O)n1` (stereo not drawn) [Compound I-141], the DC50 was in the range of 250 to 5000 nM. Turning to `COc1cc(N2CCN(C(=O)COCCOCCOCCOCCOCCCCCc3cc(Cl)cc(NC(=O)NCc4ccc5c(c4)CN(C4CCC(=O)NC4=O)C5=O)c3)CC2)ccc1Nc1ncc(Cl)c(Nc2ccccc2P(C)(C)=O)n1` (stereo not drawn) [Compound I-119], the DC50 was 250 to 5000 nM. Molecule `C=C(F)C(=O)N1CCN(c2nc(OC[C@@H]3CCCN3CCCOCCOCCOCCOCCOCCOCCOCCOCCOCCCCCc3cccc(NC(=O)NCc4ccc5c(c4)CN(C4CCC(=O)NC4=O)C5=O)n3)nc3c2CCN(c2cccc4cccc(Cl)c24)C3)C[C@@H]1CC#N` (stereo partly drawn) [Compound I-156] displayed a DC50 of 250 to 5000 nM. The molecule `Cc1c(NC(=O)c2ccc(C3CC3)cc2F)cc(F)cc1-c1ncnc(N)c1OCCN(C)C(=O)/C=C/CN(C)CCOCCOCCOCCOCCOCCOCCOCCOCCOCCOCCCCCCCCc1cc(Cl)cc(NC(=O)NCc2ccc3c(c2)CN(C2CCC(=O)NC2=O)C3=O)c1` (stereo not drawn) [Compound I-98] gave a DC50 of under 250 nM.

Turning to `C=CC(=O)NC1CN(c2nc(Nc3cn(CCOCCOCCOCCOCCOCCOCCOCCOCCOCCCCCc4cc(Cl)cc(NC(=O)NCc5ccc6c(c5)CN(C5CCC(=O)NC5=O)C6=O)c4)nc3OC)c3ncn(C)c3n2)C[C@H]1F` (stereo partly drawn) [Compound I-126], the 50% degradation concentration (DC50) is 250 to 5000 nM. Same read-out and setting: as for `CN(C/C=C/C(=O)N1CCN(c2nc(OC[C@H]3CCCN3C)nc3c2CCN(c2cccc4cccc(Cl)c24)C3)C[C@@H]1CC#N)CCOCCOCCOCCOCCOCCOCCOCCOCCCCCCCCc1cc(Cl)cc(NC(=O)NCc2ccc3c(c2)CN(C2CCC(=O)NC2=O)C3=O)c1` (stereo partly drawn) [Compound I-86], the figure is 250 to 5000 nM; as for `Nc1ncnc2c1c(-c1ccc(Oc3ccccc3)cc1)nn2[C@@H]1CCCN(C(=O)/C=C/COCCOCCOCCOCCOCCCCCCCCc2cc(Cl)cc(NC(=O)NCc3ccc4c(c3)CN(C3CCC(=O)NC3=O)C4=O)c2)C1` (stereo partly drawn) [Compound I-82], under 250 nM.

The values above are taken from patent publication US20240238424A1, “HETEROBIFUNCTIONAL COMPOUNDS AND METHODS OF TREATING DISEASE” (Halda Therapeutics OpCo, Inc., priority 2021, published 2024).
